Experimental data from patent US10479780B2, “Aminopyrazole derivatives” (Chugai Seiyaku Kabushiki Kaisha, priority 2015, dated 2019).
Read-outs that look alike come from different tables or passages of the source.

How the values were obtained:
Type in all cases: biochemical
human Yes1 enzyme = target: T1, human Yes1 enzyme (Homo sapiens, UniProt P07947); test: Yes1 enzyme inhibitory activity (time-resolved fluorometry, biotinylated peptide phosphorylation); settings: read-out: YES_IC50
T1 construct: made in house
T1 sequence (P07947 whole entry): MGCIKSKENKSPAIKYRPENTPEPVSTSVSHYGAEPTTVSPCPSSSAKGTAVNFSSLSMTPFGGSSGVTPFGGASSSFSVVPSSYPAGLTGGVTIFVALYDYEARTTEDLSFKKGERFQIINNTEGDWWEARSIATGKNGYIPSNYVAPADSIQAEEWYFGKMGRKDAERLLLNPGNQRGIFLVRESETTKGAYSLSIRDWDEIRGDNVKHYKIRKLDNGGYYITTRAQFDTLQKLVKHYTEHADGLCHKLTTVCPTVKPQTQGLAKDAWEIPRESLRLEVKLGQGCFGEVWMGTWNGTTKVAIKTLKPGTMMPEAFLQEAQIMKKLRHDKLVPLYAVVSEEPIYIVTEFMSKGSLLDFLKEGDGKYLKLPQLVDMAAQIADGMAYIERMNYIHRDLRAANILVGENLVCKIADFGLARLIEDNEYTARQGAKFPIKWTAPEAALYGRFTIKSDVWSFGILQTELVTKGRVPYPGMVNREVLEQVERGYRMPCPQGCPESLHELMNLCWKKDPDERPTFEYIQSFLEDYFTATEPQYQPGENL
Description: (§1) 1. Yes1 Enzyme Inhibitory Activity Yes1 inhibitory activity was determined based on activity of inhibiting phosphorylation reaction of a biotinylated peptide (EGPWLEEEEEAYGWMDF) using a human Yes1 enzyme prepared using a baculovirus expression system. The phosphorylated biotinylated peptide was detected by time-resolved fluorometry using an anti-phosphorylated tyrosine antibody conjugated to europium cryptate, and streptavidin conjugated to XL665, an allophycocyanin derivative. The 50% inhibitory concentration (IC50) was calculated from the inhibition rate relative to the control group without containing the test substance.

human Lck enzyme = target: T2, human Lck enzyme (Homo sapiens, UniProt P06239); test: Lck enzyme inhibitory activity (time-resolved fluorometry, biotinylated peptide phosphorylation); settings: read-out: LCK_IC50
T2 construct: purchased Carna Biosciences, Inc. 08-170
T2 sequence (P06239 whole entry): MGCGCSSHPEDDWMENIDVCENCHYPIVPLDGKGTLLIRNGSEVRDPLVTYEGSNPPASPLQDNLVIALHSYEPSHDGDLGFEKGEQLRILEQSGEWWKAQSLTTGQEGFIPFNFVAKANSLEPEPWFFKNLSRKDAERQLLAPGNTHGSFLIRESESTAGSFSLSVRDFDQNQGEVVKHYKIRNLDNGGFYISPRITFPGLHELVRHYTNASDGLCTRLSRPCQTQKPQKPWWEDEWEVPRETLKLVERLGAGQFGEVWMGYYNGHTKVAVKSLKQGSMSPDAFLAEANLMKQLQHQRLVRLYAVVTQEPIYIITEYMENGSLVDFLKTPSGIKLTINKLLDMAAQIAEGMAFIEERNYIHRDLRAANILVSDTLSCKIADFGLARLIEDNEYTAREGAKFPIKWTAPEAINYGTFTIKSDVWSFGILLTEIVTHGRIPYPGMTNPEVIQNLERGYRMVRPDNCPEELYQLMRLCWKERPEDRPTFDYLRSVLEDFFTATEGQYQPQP
Description: as §1, with “3. Lck” for “1. Yes1”, “Lck” for “Yes1”, “(manufactured by Carna Biosciences, Inc., cat 08-170).” for “prepared using a baculovirus expression system.”

human Src enzyme = target: T3, human Src enzyme (Homo sapiens, UniProt P12931); test: Src enzyme inhibitory activity (time-resolved fluorometry, biotinylated peptide phosphorylation); settings: biotinylated peptide phosphorylation, read-out: SRC_IC50
T3 construct: purchased Carna Biosciences, Inc. 08-173
T3 sequence (P12931 whole entry): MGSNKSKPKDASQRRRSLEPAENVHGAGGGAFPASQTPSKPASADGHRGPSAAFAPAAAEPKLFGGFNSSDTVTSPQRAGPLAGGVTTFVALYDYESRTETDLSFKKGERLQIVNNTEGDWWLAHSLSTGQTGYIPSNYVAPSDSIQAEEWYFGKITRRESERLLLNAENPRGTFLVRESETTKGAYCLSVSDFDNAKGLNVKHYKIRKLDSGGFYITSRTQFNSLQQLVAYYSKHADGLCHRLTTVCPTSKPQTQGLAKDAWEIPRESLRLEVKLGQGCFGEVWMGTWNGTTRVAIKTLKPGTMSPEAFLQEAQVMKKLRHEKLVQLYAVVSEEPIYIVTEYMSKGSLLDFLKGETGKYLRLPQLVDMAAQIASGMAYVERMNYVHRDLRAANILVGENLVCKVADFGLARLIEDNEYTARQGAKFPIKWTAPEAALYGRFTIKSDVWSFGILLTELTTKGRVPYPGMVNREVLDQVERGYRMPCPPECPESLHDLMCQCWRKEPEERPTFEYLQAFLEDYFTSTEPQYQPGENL
Description: as §1, with “2. Src” for “1. Yes1”, “Src” for “Yes1”, “(manufactured by Carna Biosciences, Inc., cat 08-173).” for “prepared using a baculovirus expression system.”

[1] = biotinylated peptide phosphorylation

| Compound | IC50 (human Yes1 enzyme; [1]) [nM] | IC50 (human Lck enzyme; [1]) [nM] | IC50 (human Src enzyme) [nM] | IC50 (human Yes1 enzyme) [nM] | IC50 (human Lck enzyme) [nM] |
| --- | --- | --- | --- | --- | --- |
| Cc1cc2cc(C(=O)c3cnn(-c4cnc(Oc5c(F)cccc5F)cc4C)c3N)[nH]c2cc1NS(C)(=O)=O [Example 4-1-001, N-{2-{5-amino-1-[6-(2,6-difluorophenoxy)-4-methylpyridin-3-yl]pyrazole-4-carbonyl}-5-methyl-1H-indol-6-yl}methanesulfonamide] | 1.2 | 8.2 | 45 |  |  |
| Cc1cc(Oc2ccccc2F)ccc1-n1ncc(C(=O)c2cc3cc(F)c(NS(C)(=O)=O)cc3[nH]2)c1N [Example 4-1-002, N-[2-[5-amino-1-[4-(2-fluorophenoxy)-2-methylphenyl]pyrazole-4-carbonyl]-5-fluoro-1H-indol-6-yl]methanesulfonamide] | 0.52 | 7.6 | 21 |  |  |
| CS(=O)(=O)Nc1cc2[nH]c(C(=O)c3cnn(-c4ccc(Oc5ccccn5)cc4Cl)c3N)cc2cc1F [Example 4-1-003, N-[2-[5-amino-1-(2-chloro-4-pyridin-2-yloxyphenyl)pyrazole-4-carbonyl]-5-fluoro-1H-indol-6-yl]methanesulfonamide] | 1.2 | 14 | 55 |  |  |
| Cc1cc(-n2ncc(C(=O)c3cc4cc(F)c(NS(C)(=O)=O)cc4[nH]3)c2N)cnc1Oc1ccccc1Cl [Example 5-1-041, N-[2-[5-amino-1-[6-(2-chlorophenoxy)-5-methylpyridin-3-yl]pyrazole-4-carbonyl]-5-fluoro-1H-indol-6-yl]methanesulfonamide] |  |  |  | 93 | 2000 |
| Cc1cc(-n2ncc(C(=O)c3cc4cc(F)c(NS(C)(=O)=O)cc4[nH]3)c2N)cnc1Oc1cccc(Cl)c1 [Example 5-1-042, N-[2-[5-amino-1-[6-(3-chlorophenoxy)-5-methylpyridin-3-yl]pyrazole-4-carbonyl]-5-fluoro-1H-indol-6-yl]methanesulfonamide] |  |  |  | 270 | 1900 |
| Cc1cc(-n2ncc(C(=O)c3cc4cc(F)c(NS(C)(=O)=O)cc4[nH]3)c2N)cnc1Oc1c(F)cccc1Cl [Example 5-1-043, N-[2-[5-amino-1-[6-(2-chloro-6-fluorophenoxy)-5-methylpyridin-3-yl]pyrazole-4-carbonyl]-5-fluoro-1H-indol-6-yl] methanesulfonamide] |  |  |  | 38 | 2600 |
| Cc1cc(-n2ncc(C(=O)c3cc4cc(F)c(NS(C)(=O)=O)cc4[nH]3)c2N)cnc1Oc1cccc(F)c1F [Example 5-1-044, N-[2-[5-amino-1-[6-(2,3-difluorophenoxy)-5-methylpyridin-3-yl]pyrazole-4-carbonyl]-5-fluoro-1H-indol-6-yl]methanesulfonamide] |  |  |  | 52 | 2700 |
| Cc1cc(-n2ncc(C(=O)c3cc4cc(F)c(NS(C)(=O)=O)cc4[nH]3)c2N)cnc1Oc1cc(F)cc(F)c1 [Example 5-1-045, N-[2-[5-amino-1-[6-(3,5-difluorophenoxy)-5-methylpyridin-3-yl]pyrazole-4-carbonyl]-5-fluoro-1H-indol-6-yl]methanesulfonamide] |  |  |  | 210 | 4400 |
| Cc1cc(-n2ncc(C(=O)c3cc4cc(OCC(F)F)c(Br)cc4[nH]3)c2N)ccc1Oc1ccccc1F [Example 5-1-150, [5-amino-1-[4-(2-fluorophenoxy)-3-methylphenyl]pyrazol-4-yl]-[6-bromo-5-(2,2-difluoroethoxy)-1H-indol-2-yl]methanone] |  |  |  | 4.8 | 320 |
| Cc1cc(-n2ncc(C(=O)c3cc4cc(OC(F)F)c(Br)cc4[nH]3)c2N)ccc1Oc1ccccc1F [Example 5-1-152, [5-amino-1-[4-(2-fluorophenoxy)-3-methylphenyl]pyrazol-4-yl]-[6-bromo-5-(difluoromethoxy)-1H-indol-2-yl]methanone] |  |  |  | 7.3 | 7800 |
| Cc1cc2cc(C(=O)c3cnn(-c4cc(C)c(Oc5ccccc5F)cc4F)c3N)[nH]c2cc1NS(C)(=O)=O [Example 5-1-206, N-[2-[5-amino-1-[2-fluoro-4-(2-fluorophenoxy)-5-methylphenyl]pyrazole-4-carbonyl]-5-methyl-1H-indol-6-yl]methanesulfonamide] |  |  |  | 9.1 |  |
| Cc1cc2cc(C(=O)c3cnn(-c4ccc(Oc5cccc(F)c5)c(C)c4)c3N)[nH]c2cc1NS(C)(=O)=O [Example 5-1-211, N-[2-[5-amino-1-[4-(3-fluorophenoxy)-3-methylphenyl]pyrazole-4-carbonyl]-5-methyl-1H-indol-6-yl]methanesulfonamide] |  |  |  | 26 | 4400 |
| Cc1cc(-n2ncc(C(=O)c3cc4cc(OCC(F)F)c(-c5cccs5)cc4[nH]3)c2N)ccc1Oc1ccccc1F [Example 5-1-256, [5-amino-1-[4-(2-fluorophenoxy)-3-methylphenyl]pyrazol-4-yl]-[5-(2,2-difluoroethoxy)-6-thiophen-2-yl-1H-indol-2-yl] methanone] |  |  |  | 120 |  |
| Cc1cc(-n2ncc(C(=O)c3cc4cc(OC5CCN(C6CS(=O)(=O)C6)CC5)c(-c5ccccc5Cl)cc4[nH]3)c2N)ccc1Oc1ccccc1F [Example 5-1-289, [5-amino-1-[4-(2-fluorophenoxy)-3-methylphenyl]pyrazol-4-yl]-[6-(2-chlorophenyl)-5-[1-(1,1-dioxothietan-3-yl)piperidin-4-yl]oxy-1H-indol-2-yl]methanone] |  |  |  | 3.4 | 400 |
| Cc1cc2cc(C(=O)c3cnn(-c4ccc(Oc5ccccc5F)c(C)c4)c3N)[nH]c2cc1NS(C)(=O)=O [Example 5-1-307, N-[2-[5-amino-1-[4-(2-fluorophenoxy)-3-methylphenyl]pyrazole-4-carbonyl]-5-methyl-1H-indol-6-yl]methanesulfonamide] |  |  |  | 26 | 720 |
| Cc1cc(-n2ncc(C(=O)c3cc4cc(OC5CCN(C6CS(=O)(=O)C6)CC5)c(-c5ccccc5C)cc4[nH]3)c2N)ccc1Oc1ccccc1F [Example 5-1-336, [5-amino-1-[4-(2-fluorophenoxy)-3-methylphenyl]pyrazol-4-yl]-[5-[1-(1,1-dioxothietan-3-yl)piperidin-4-yl]oxy-6-(2-methylphenyl)-1H-indol-2-yl]methanone] |  |  |  | 4.2 | 240 |
| Cc1cc(-n2ncc(C(=O)c3cc4cc(OC5CCN(C6CS(=O)(=O)C6)CC5)c(-c5ccccc5C(F)(F)F)cc4[nH]3)c2N)ccc1Oc1ccccc1F [Example 5-1-386, (5-amino-1-(4-(2-fluorophenoxy)-3-methylphenyl)-1H-pyrazol-4-yl)(5-((1-(1,1-dioxidothietan-3-yl)piperidin-4-yl)oxy)-6-(2-(trifluoromethyl)phenyl)-1H-indol-2-yl)methanone] |  |  |  | 3.9 | 1000 |
| Cc1cc(-n2ncc(C(=O)c3cc4cc(C)c(N5C(=O)NC6(CCCCC6)C5=O)cc4[nH]3)c2N)ccc1Oc1ccccc1F [Example 5-1-470, 3-[2-[5-amino-1-[4-(2-fluorophenoxy)-3-methylphenyl]pyrazole-4-carbonyl]-5-methyl-1H-indol-6-yl]-1,3-diazaspiro[4.5]decane-2,4-dione] | 31 | 870 |  |  |  |
| Cc1cc(-n2ncc(C(=O)c3cc4cc(C)c(N5C(=O)NC6(CCN(C(=O)OC(C)(C)C)CC6)C5=O)cc4[nH]3)c2N)ccc1Oc1ccccc1F [Example 5-1-471, tert-Butyl 3-[2-[5-amino-1-[4-(2-fluorophenoxy)-3-methylphenyl]pyrazole-4-carbonyl]-5-methyl-1H-indol-6-yl]-2,4-dioxo-1,3,8-triazaspiro[4.5]decane-8-carboxylate] | 81 | 980 |  |  |  |
| Cc1cc(-n2ncc(C(=O)c3cc4cc(C)c(N5C(=O)NC(C)(C(F)(F)F)C5=O)cc4[nH]3)c2N)ccc1Oc1ccccc1F (stereo not drawn) [Example 5-1-472, 3-[2-[5-amino-1-[4-(2-fluorophenoxy)-3-methylphenyl]pyrazole-4-carbonyl]-5-methyl-1H-indol-6-yl]-5-methyl-5-(trifluoromethyl) imidazolidine-2,4-dione] | 40 | 710 |  |  |  |
| Cc1cc(-n2ncc(C(=O)c3cc4cc(C)c(N5C(=O)NC6(CCCC6)C5=O)cc4[nH]3)c2N)ccc1Oc1ccccc1F [Example 5-1-474, 3-[2-[5-amino-1-[4-(2-fluorophenoxy)-3-methylphenyl]pyrazole-4-carbonyl]-5-methyl-1H-indol-6-yl]-1,3-diazaspiro[4.4]nonane-2,4-dione] | 27 | 650 |  |  |  |
| Cc1cc(-n2ncc(C(=O)c3cc4cc(F)c(NS(=O)(=O)C5CCOCC5)cc4[nH]3)c2N)ccc1Oc1ccccc1F [Example 5-1-493, N-[2-[5-amino-1-[4-(2-fluorophenoxy)-3-methylphenyl]pyrazole-4-carbonyl]-5-fluoro-1H-indol-6-yl]oxane-4-sulfonamide] | 5.3 | 3000 |  |  |  |
